The values below come from patent US20230167088A1, “1-PYRAZINYLPYRAZOLYL-3-OXYALKYL ACIDS AND THEIR DERIVATIVES, AND THEIR USE FOR CONTROL OF UNDESIRED PLANT GROWTH” (BAYER AKTIENGESELLSCHAFT, priority 2020, published 2023).

One assay relates to AMARE. The assay is described as follows: Herbicidal post-emergence action 1a (greenhouse pots, visual rating). It counts as in vivo, Amaranthus retroflexus. As to conditions: visual rating about 3 weeks after treatment. Put shortly:
(§1)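 Weeds and crops sown in sandy loam in greenhouse pots were sprayed post-emergence at the one-leaf stage (2–3 weeks after sowing) with WP or EC formulations plus 0.5% additive at 600 l/ha water, 320 and/or 80 g/ha. About 3 weeks later damage was rated visually against untreated controls (0% = no effect, 100% = dead).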

The subject of assay [1] is MATIN. Described as above. Type of assay: in vivo, Matricaria inodora. Conditions: visual rating about 3 weeks after treatment. The essentials: as §1
A further assay concerns PHBPU. Described as above. Type of assay: in vivo, Pharbitis purpurea. Conditions: visual rating about 3 weeks after treatment. Put shortly:
as §1

The subject of assay [2] is POLCO. The assay is described as above. It counts as in vivo, Polygonum convolvulus. Conditions: visual rating about 3 weeks after treatment. Put shortly:
as §1

The subject of assay [3] is VERPE. Described as above. It counts as in vivo, Veronica persica. Conditions: visual rating about 3 weeks after treatment. The essentials: as §1
A further assay deals with ECHCG. The experiment in a line: Herbicidal post-emergence action 1b (twin sowing, 1280 g/ha). It counts as in vivo, Echinochloa crus-galli. As to conditions: dosage 1280 g/ha, visual rating about 3 weeks after treatment. The essentials: (§2)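 Sow paired weed species in sandy loam pots and grow in the greenhouse; at the one-leaf stage (2–3 weeks) spray green parts with compound suspension or emulsion containing 0.5% additive at 600 L water/ha; keep about 3 weeks, then score damage visually relative to untreated plants.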

Assay [4] has as its system STEME. The assay is described as above. Type of assay: in vivo, Stellaria media. As to conditions: dosage 1280 g/ha, visual rating about 3 weeks after treatment. Put shortly: as §2
The test system of a further assay is SETVI. The experiment in a line: Herbicidal pre-emergence action 2a (greenhouse pots, visual scoring). Type of assay: in vivo, Setaria viridis. Conditions: dosage 320 g/ha, visual scoring after about 3 weeks vs untreated controls. Put shortly: (§3)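 Pre-emergence soil-surface spray: WP/EC, 0.5% additive, 600 l/ha water, 320 and/or 80 g/ha. Greenhouse ~3 wk. Visual % damage vs untreated (100% = plants dead, 0% = like control).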

The test system of assay [5] is MATIN. Described as above. Conditions: dosage 320 g/ha, visual scoring after about 3 weeks vs untreated controls. Type of assay: in vivo, Matricaria inodora. Put shortly:
as §3

Assay [6] relates to POLCO. Described as above. As to conditions: dosage 320 g/ha, visual scoring after about 3 weeks vs untreated controls. It counts as in vivo, Polygonum convolvulus. The essentials:
as §3

In assay [7] the test system is VERPE. The assay is described as above. Type of assay: in vivo, Veronica persica. As to conditions: dosage 320 g/ha, visual scoring after about 3 weeks vs untreated controls. Put shortly:
as §3

The test system of a further assay is POAAN. The assay is described as follows: Herbicidal pre-emergence action 2b (doubly sown, 1280 g/ha). It counts as in vivo, Poa annua. Conditions: doubly sown pots, dosage 1280 g/ha, visual scoring after about 3 weeks. The essentials:
(§4)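 Read-out: visual percentage damage relative to untreated controls, scored after roughly 3 weeks in the greenhouse, where 100% means plants died and 0% equals control. Seeds were sown two species per pot in sandy loam and covered before the compounds, formulated as WP or EC with 0.5% additive, were sprayed onto the soil at 600 L/ha.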

Assay [8] relates to MATIN. The assay is described as above. Type of assay: in vivo, Matricaria inodora. Conditions: doubly sown pots, dosage 1280 g/ha, visual scoring after about 3 weeks. Put shortly:
as §4

The test system of assay [9] is STEME. The assay is described as above. It counts as in vivo, Stellaria media. Conditions: doubly sown pots, dosage 1280 g/ha, visual scoring after about 3 weeks. The essentials:
as §4

Consider `COC(=O)C(C)Oc1nn(-c2cnccn2)c(-c2ccc(F)c(F)c2)c1Br` (racemic) [Example I-16], for which the “Post-emergence action against AMARE in %” value in the assay on AMARE (dosage 320 g/ha) is recorded as 90%. Besides, the “Post-emergence action against MATIN in %” value with MATIN [1] (dosage 320 g/ha) turned out to be 80%. Further, in the assay with PHBPU (dosage 320 g/ha), the “Post-emergence action against PHBPU in %” value was found to be 90%. In addition, the “Post-emergence action against POLCO in %” value in the assay on POLCO [2] (dosage 320 g/ha) is reported as 90%. The “Post-emergence action against VERPE in %” value with VERPE [3] (dosage 320 g/ha) was determined as 80%. Further, the “Post-emergence action at 1280 g/ha against ECHCG in %” value in the assay on ECHCG came out at 100%. In the assay with STEME [4], the “Post-emergence action at 1280 g/ha against STEME in %” value came to 100%. The “Pre-emergence action against SETVI in %” value in the assay with SETVI is listed as 100%. Further, the “Pre-emergence action against MATIN in %” value in the assay on MATIN [5] is 90%. Besides, the “Pre-emergence action against POLCO in %” value with POLCO [6] is recorded as 90%. The “Pre-emergence action against VERPE in %” value with VERPE [7] worked out at 100%. In addition, the “Pre-emergence action at 1280 g/ha against POAAN in %” value with POAAN came out at 100%. In the assay with MATIN [8], the “Pre-emergence action at 1280 g/ha against MATIN in %” value worked out at 100%. Also, in the assay on STEME [9], the “Pre-emergence action at 1280 g/ha against STEME in %” value amounted to 100%.
Consider `CCOC(=O)COc1nn(-c2cnccn2)c(-c2ccc(F)nc2)c1Cl` [Example I-53], for which the “Post-emergence action against AMARE in %” value in the assay with AMARE (dosage 80 g/ha) was found to be 80%. The “Post-emergence action against MATIN in %” value in the assay with MATIN [1] (dosage 80 g/ha) is given as 80%. For the same molecule, the “Post-emergence action against PHBPU in %” value in the assay on PHBPU (dosage 80 g/ha) is reported as 80%. The “Post-emergence action against POLCO in %” value with POLCO [2] (dosage 80 g/ha) and with POLCO [2] (dosage 320 g/ha) was 90% in each case. For the same molecule, the “Post-emergence action against VERPE in %” value in the assay on VERPE [3] (dosage 80 g/ha) is on record as 80%. In addition, in the assay with ECHCG, the “Post-emergence action at 1280 g/ha against ECHCG in %” value is reported as 100%. The “Post-emergence action at 1280 g/ha against STEME in %” value in the assay with STEME [4] was 100%. In addition, the “Pre-emergence action against SETVI in %” value in the assay with SETVI is 100%. In addition, the “Pre-emergence action against MATIN in %” value in the assay with MATIN [5] was found to be 100%. Also, the “Pre-emergence action against POLCO in %” value in the assay with POLCO [6] was found to be 90%. Besides, in the assay on VERPE [7], the “Pre-emergence action against VERPE in %” value amounted to 90%. In the assay with POAAN, the “Pre-emergence action at 1280 g/ha against POAAN in %” value was 100%. Further, the “Pre-emergence action at 1280 g/ha against MATIN in %” value in the assay on MATIN [8] was found to be 100%. The “Pre-emergence action at 1280 g/ha against STEME in %” value in the assay with STEME [9] was determined as 100%.
Consider `COC(=O)[C@@H](C)Oc1nn(-c2cnccn2)c(-c2ccc(F)c(F)c2)c1Br` [Example I-45], for which the “Post-emergence action against AMARE in %” value in the assay with AMARE (dosage 320 g/ha) was 90%. In addition, the “Post-emergence action against MATIN in %” value in the assay with MATIN [1] (dosage 320 g/ha) is 80%. The “Post-emergence action against PHBPU in %” value in the assay with PHBPU (dosage 320 g/ha) is on record as 90%. The “Post-emergence action against POLCO in %” value with POLCO [2] (dosage 320 g/ha) was determined as 100%. Further, the “Post-emergence action against VERPE in %” value in the assay with VERPE [3] (dosage 320 g/ha) came out at 80%. In the assay with ECHCG, the “Post-emergence action at 1280 g/ha against ECHCG in %” value was determined as 100%. In addition, the “Post-emergence action at 1280 g/ha against STEME in %” value with STEME [4] stood at 100%. The “Pre-emergence action against SETVI in %” value in the assay with SETVI turned out to be 100%. Moreover, the “Pre-emergence action against MATIN in %” value in the assay on MATIN [5] is on record as 100%. Also, in the assay with POLCO [6], the “Pre-emergence action against POLCO in %” value is listed as 100%. Moreover, in the assay on VERPE [7], the “Pre-emergence action against VERPE in %” value is on record as 80%. Besides, the “Pre-emergence action at 1280 g/ha against POAAN in %” value with POAAN came out at 100%. Also, the “Pre-emergence action at 1280 g/ha against MATIN in %” value with MATIN [8] is given as 100%. In addition, the “Pre-emergence action at 1280 g/ha against STEME in %” value in the assay on STEME [9] was found to be 100%.
For the molecule `C[C@H](Oc1nn(-c2cnccn2)c(-c2cncc(F)c2)c1Br)C(=O)O` [Example I-37], the “Post-emergence action against AMARE in %” value in the assay on AMARE (dosage 320 g/ha) is reported as 90%. Besides, the “Post-emergence action against MATIN in %” value in the assay with MATIN [1] (dosage 320 g/ha) is on record as 80%. In the assay with PHBPU (dosage 320 g/ha), the “Post-emergence action against PHBPU in %” value was 80%. Besides, the “Post-emergence action against POLCO in %” value in the assay with POLCO [2] (dosage 320 g/ha) is 100%. Moreover, the “Post-emergence action against VERPE in %” value in the assay with VERPE [3] (dosage 80 g/ha) came out at 80%; in the assay on VERPE [3] (dosage 320 g/ha), 90%. Further, in the assay with ECHCG, the “Post-emergence action at 1280 g/ha against ECHCG in %” value came out at 100%. Also, the “Post-emergence action at 1280 g/ha against STEME in %” value in the assay with STEME [4] amounted to 100%. For the same molecule, in the assay on SETVI, the “Pre-emergence action against SETVI in %” value was 100%. Also, in the assay on MATIN [5], the “Pre-emergence action against MATIN in %” value is 90%. For the same molecule, the “Pre-emergence action against POLCO in %” value in the assay on POLCO [6] was found to be 100%. In the assay with VERPE [7], the “Pre-emergence action against VERPE in %” value turned out to be 100%. In addition, the “Pre-emergence action at 1280 g/ha against POAAN in %” value in the assay on POAAN is 100%. For the same molecule, the “Pre-emergence action at 1280 g/ha against MATIN in %” value in the assay with MATIN [8] is listed as 100%. For the same molecule, in the assay with STEME [9], the “Pre-emergence action at 1280 g/ha against STEME in %” value worked out at 100%.
On to `COC(=O)[C@@H](C)Oc1nn(-c2cnccn2)c(-c2ccc(F)nc2)c1Cl` [Example I-36], for which the “Post-emergence action against AMARE in %” value in the assay on AMARE (dosage 80 g/ha) and with AMARE (dosage 320 g/ha) was 90% throughout. In addition, the “Post-emergence action against MATIN in %” value with MATIN [1] (dosage 320 g/ha) turned out to be 80%. In addition, the “Post-emergence action against PHBPU in %” value in the assay with PHBPU (dosage 80 g/ha) and in the assay on PHBPU (dosage 320 g/ha) was 90% throughout. Moreover, the “Post-emergence action against POLCO in %” value with POLCO [2] (dosage 80 g/ha) is given as 90%; in the assay with POLCO [2] (dosage 320 g/ha) it was 100%. For the same molecule, the “Post-emergence action against VERPE in %” value in the assay on VERPE [3] (dosage 320 g/ha) turned out to be 90%. Besides, the “Post-emergence action at 1280 g/ha against ECHCG in %” value in the assay on ECHCG came out at 100%. For the same molecule, the “Post-emergence action at 1280 g/ha against STEME in %” value with STEME [4] was 100%. Moreover, the “Pre-emergence action against SETVI in %” value in the assay on SETVI came out at 100%. Besides, the “Pre-emergence action against MATIN in %” value in the assay with MATIN [5] came to 80%. In addition, the “Pre-emergence action against POLCO in %” value with POLCO [6] came to 100%. Moreover, in the assay on VERPE [7], the “Pre-emergence action against VERPE in %” value is 100%. The “Pre-emergence action at 1280 g/ha against POAAN in %” value in the assay on POAAN is on record as 100%. Further, in the assay on MATIN [8], the “Pre-emergence action at 1280 g/ha against MATIN in %” value worked out at 90%. Further, the “Pre-emergence action at 1280 g/ha against STEME in %” value with STEME [9] was 100%.
